The source made the active and inactive calls.
Assays:
Coagulation factor XII = molecular target: T1, Coagulation factor XII (Homo sapiens, UniProt P00748); assay type: functional;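 also: activated factor XIIa alpha cleaving a fluorogenic AMC peptide substrate; inhibitor potency from loss of enzyme activity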
T1 sequence (P00748 whole entry): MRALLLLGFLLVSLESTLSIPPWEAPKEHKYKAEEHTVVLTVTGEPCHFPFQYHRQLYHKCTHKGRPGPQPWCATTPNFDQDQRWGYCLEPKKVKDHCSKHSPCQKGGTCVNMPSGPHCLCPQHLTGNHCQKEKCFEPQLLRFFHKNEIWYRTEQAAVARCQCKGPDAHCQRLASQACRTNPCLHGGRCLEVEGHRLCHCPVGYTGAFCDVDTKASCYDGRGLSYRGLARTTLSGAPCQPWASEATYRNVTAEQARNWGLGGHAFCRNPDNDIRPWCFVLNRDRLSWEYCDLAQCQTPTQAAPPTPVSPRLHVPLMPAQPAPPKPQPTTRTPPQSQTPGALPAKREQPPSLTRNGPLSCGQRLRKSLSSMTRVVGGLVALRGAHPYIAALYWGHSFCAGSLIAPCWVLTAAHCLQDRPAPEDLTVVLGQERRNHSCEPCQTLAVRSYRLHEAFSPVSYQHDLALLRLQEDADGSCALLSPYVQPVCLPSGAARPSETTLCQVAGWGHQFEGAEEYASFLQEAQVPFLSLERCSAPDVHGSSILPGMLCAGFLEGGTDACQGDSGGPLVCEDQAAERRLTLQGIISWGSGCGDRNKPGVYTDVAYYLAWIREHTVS

[1] = MC4R antagonists, dose response, counter-screen for LGR2 antagonist project, cell-based, plate reader, cherry pick (AID 743444); assay type: functional;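 also: transfected HEK 293 cells stimulated with alpha-MSH peptide; potency of inhibitors of the alpha-MSH evoked signal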
[2] = molecular target: T2, Microphthalmia-associated transcription factor (Homo sapiens, UniProt O75030); test: TRPM1 promoter luciferase signal decrease, dose response, MITF inhibitor project, cell-based, SK-MEL-5, cherry-picked, set 3 (AID 493073); assay type: functional
T2 sequence (O75030 whole entry): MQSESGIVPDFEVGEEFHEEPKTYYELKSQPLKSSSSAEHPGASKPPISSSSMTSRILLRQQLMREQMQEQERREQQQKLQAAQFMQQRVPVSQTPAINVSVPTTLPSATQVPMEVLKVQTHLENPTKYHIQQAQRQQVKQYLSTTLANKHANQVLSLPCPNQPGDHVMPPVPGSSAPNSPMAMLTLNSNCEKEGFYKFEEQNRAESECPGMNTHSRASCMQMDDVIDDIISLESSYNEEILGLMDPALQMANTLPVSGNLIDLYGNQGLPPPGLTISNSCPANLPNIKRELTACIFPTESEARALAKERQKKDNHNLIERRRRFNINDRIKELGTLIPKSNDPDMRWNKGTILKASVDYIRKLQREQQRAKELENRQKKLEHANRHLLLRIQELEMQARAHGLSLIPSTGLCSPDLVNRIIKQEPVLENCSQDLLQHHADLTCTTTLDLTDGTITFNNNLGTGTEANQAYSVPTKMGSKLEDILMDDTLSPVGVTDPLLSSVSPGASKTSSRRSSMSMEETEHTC

[3] = LGR2 antagonists, dose response, cell-based, HEK293, CRE-luciferase reporter, cherry pick, set 2 (AID 743343); assay type: functional;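 also: transfected cells were stimulated with diluted bursicon conditioned medium after compound addition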
[4] = Luminescence Cell-Based Dose Response HTS to Identify Inhibitors of 5'UTR Stem-Loop Driven Prion Protein mRNA Translation in H4 Neuroglioblastoma Cells. [Related pubchem assays: 1827 (Project Summary), 1813 (Primary HTS)]; assay type: functional
[5] = inhibitors of firefly luciferase expression or activity, dose response, H4 neuroglioma cells, luminescence (AID 1990); assay type: functional, cell-based
[6] = inhibitors of SNCA 5'UTR-driven reporter translation, confirmation, H4 neuroglioma cells, luminescence (AID 1988); assay type: functional, cell-based
[7] = molecular target: T3, Sentrin-specific protease 8 (Homo sapiens, UniProt Q96LD8); assay type: functional;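 also: luminescence read-out of SENP8 inhibition, dose-response confirmation following an ultra-high-throughput screen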
T3 sequence (Q96LD8 whole entry): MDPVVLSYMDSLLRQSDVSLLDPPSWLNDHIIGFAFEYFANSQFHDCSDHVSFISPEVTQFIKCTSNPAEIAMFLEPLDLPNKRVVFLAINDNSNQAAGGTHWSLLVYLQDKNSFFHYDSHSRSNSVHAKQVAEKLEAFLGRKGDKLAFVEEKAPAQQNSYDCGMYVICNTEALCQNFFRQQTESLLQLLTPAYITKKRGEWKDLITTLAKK

[8] = inhibitors of Bluetongue virus cytopathic effect, confirmation, arbovirus, BSR cells (AID 1250); assay type: functional;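 also: protection from viral cytopathic effect measured as cell viability by ATP luminescence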
Caspase-3 = molecular target: T4, Caspase-3 (Homo sapiens, UniProt P42574); assay type: functional;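 also: Dose-response selectivity test against caspase-3 for candidate inhibitors of sentrin-specific proteases (SENPs)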
T4 sequence (P42574 whole entry): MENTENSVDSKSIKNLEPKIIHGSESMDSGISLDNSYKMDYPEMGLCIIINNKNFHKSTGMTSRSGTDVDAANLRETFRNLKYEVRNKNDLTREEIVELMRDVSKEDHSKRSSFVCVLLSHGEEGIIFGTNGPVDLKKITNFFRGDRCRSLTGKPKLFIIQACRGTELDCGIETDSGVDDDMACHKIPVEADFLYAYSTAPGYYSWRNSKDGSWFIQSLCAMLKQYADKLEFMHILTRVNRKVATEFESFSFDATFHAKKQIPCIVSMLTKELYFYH

[9] = molecular target: T5, Sentrin-specific protease 7 (Homo sapiens, UniProt Q9BQF6); assay type: functional;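 also: Luminescence-based dose-response confirmation of ultra-high-throughput screening hits, measuring inhibition of SENP7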
T5 sequence (Q9BQF6 whole entry): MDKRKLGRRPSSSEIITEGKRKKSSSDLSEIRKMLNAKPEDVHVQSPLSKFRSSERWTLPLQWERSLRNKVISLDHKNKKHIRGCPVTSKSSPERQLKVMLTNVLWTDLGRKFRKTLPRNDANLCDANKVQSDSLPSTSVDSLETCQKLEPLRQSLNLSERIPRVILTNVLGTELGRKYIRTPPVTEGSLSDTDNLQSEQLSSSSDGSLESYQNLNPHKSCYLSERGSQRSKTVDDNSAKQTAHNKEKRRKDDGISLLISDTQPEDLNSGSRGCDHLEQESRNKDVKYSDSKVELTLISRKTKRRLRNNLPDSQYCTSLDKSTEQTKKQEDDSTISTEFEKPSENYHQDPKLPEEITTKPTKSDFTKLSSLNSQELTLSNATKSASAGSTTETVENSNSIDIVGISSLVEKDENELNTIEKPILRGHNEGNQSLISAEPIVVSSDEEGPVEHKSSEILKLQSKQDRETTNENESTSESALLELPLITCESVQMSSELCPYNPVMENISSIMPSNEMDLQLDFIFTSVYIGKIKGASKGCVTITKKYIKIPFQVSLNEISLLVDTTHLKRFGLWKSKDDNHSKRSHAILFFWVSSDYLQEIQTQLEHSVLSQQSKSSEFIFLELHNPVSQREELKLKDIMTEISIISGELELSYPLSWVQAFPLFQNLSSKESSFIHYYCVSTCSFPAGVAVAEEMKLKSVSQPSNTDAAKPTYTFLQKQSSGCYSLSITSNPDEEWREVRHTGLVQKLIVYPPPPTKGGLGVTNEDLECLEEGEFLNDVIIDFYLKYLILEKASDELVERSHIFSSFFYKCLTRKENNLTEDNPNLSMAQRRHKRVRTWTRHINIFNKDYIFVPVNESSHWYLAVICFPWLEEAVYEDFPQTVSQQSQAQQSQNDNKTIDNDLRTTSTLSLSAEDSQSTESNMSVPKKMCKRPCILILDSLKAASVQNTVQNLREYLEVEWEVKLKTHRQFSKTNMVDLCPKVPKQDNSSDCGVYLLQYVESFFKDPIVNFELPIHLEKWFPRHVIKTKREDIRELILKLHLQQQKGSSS

[10] = molecular target: T6, Sentrin-specific protease 6 (Homo sapiens, UniProt Q9GZR1); assay type: functional;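 also: Luminescence-based dose-response confirmatory assay of SENP6 inhibition, following up an ultra-high-throughput screen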
T6 sequence (Q9GZR1 whole entry): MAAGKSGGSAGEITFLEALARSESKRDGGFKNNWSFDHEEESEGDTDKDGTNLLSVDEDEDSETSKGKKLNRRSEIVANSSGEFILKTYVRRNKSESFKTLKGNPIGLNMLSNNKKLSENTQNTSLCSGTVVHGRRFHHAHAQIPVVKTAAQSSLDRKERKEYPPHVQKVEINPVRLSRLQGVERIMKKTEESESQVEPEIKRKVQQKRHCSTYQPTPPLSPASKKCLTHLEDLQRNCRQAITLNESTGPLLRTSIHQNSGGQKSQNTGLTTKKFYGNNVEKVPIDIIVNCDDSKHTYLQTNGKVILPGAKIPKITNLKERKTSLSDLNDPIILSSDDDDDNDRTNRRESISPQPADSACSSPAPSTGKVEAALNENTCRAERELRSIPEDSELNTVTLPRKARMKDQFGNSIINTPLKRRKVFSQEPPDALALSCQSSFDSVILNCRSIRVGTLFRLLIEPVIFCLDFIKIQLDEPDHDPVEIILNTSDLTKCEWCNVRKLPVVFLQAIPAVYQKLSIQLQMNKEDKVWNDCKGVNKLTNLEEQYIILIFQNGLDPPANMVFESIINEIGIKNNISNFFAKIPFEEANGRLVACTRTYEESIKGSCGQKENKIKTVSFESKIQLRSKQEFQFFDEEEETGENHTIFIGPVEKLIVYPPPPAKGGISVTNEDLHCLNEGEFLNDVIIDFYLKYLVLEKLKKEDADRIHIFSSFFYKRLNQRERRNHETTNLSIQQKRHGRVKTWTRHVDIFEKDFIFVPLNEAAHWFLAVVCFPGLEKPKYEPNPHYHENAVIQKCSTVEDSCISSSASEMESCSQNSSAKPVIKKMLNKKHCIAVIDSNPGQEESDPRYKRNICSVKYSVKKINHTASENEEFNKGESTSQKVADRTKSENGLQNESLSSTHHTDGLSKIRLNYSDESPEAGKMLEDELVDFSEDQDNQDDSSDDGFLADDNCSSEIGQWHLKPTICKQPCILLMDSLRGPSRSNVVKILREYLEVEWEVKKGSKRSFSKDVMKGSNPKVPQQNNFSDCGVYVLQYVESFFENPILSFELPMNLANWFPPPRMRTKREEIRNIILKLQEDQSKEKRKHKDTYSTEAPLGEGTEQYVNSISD

[11] = cytotoxicity in HEK-293T cells, dose response, cytotoxicity control for TCR NF-kB inhibitor project, luminescence, T-cell screen hits (AID 489026); assay type: functional, cell-based;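 also: cells exposed to compound about 14 hours before the viability readout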
Fatty acid synthase [12] = molecular target: T7, Fatty acid synthase (Homo sapiens, UniProt P49327); test: FAS thioesterase domain inhibitors, dose response, biochemical, endpoint fluorescence intensity, uHTS hits (AID 624327); assay type: functional;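 also: fluorescence from hydrolysis of an O-methyl fluorescein acyl ester substrate by the enzyme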
Fatty acid synthase [13] = molecular target: T7, Fatty acid synthase; test: FAS thioesterase domain inhibitors, dose response, biochemical, kinetic fluorescence intensity (AID 624326); assay type: functional;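 also: rate of fluorescence rise from hydrolysis of a fluorogenic O-methyl fluorescein ester substrate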
cells [14] = assay type: functional, cell-based
cells [15] = assay type: functional, cell-based; remark: listed apart in the source

T7 sequence (P49327 whole entry, the tested form may be a part): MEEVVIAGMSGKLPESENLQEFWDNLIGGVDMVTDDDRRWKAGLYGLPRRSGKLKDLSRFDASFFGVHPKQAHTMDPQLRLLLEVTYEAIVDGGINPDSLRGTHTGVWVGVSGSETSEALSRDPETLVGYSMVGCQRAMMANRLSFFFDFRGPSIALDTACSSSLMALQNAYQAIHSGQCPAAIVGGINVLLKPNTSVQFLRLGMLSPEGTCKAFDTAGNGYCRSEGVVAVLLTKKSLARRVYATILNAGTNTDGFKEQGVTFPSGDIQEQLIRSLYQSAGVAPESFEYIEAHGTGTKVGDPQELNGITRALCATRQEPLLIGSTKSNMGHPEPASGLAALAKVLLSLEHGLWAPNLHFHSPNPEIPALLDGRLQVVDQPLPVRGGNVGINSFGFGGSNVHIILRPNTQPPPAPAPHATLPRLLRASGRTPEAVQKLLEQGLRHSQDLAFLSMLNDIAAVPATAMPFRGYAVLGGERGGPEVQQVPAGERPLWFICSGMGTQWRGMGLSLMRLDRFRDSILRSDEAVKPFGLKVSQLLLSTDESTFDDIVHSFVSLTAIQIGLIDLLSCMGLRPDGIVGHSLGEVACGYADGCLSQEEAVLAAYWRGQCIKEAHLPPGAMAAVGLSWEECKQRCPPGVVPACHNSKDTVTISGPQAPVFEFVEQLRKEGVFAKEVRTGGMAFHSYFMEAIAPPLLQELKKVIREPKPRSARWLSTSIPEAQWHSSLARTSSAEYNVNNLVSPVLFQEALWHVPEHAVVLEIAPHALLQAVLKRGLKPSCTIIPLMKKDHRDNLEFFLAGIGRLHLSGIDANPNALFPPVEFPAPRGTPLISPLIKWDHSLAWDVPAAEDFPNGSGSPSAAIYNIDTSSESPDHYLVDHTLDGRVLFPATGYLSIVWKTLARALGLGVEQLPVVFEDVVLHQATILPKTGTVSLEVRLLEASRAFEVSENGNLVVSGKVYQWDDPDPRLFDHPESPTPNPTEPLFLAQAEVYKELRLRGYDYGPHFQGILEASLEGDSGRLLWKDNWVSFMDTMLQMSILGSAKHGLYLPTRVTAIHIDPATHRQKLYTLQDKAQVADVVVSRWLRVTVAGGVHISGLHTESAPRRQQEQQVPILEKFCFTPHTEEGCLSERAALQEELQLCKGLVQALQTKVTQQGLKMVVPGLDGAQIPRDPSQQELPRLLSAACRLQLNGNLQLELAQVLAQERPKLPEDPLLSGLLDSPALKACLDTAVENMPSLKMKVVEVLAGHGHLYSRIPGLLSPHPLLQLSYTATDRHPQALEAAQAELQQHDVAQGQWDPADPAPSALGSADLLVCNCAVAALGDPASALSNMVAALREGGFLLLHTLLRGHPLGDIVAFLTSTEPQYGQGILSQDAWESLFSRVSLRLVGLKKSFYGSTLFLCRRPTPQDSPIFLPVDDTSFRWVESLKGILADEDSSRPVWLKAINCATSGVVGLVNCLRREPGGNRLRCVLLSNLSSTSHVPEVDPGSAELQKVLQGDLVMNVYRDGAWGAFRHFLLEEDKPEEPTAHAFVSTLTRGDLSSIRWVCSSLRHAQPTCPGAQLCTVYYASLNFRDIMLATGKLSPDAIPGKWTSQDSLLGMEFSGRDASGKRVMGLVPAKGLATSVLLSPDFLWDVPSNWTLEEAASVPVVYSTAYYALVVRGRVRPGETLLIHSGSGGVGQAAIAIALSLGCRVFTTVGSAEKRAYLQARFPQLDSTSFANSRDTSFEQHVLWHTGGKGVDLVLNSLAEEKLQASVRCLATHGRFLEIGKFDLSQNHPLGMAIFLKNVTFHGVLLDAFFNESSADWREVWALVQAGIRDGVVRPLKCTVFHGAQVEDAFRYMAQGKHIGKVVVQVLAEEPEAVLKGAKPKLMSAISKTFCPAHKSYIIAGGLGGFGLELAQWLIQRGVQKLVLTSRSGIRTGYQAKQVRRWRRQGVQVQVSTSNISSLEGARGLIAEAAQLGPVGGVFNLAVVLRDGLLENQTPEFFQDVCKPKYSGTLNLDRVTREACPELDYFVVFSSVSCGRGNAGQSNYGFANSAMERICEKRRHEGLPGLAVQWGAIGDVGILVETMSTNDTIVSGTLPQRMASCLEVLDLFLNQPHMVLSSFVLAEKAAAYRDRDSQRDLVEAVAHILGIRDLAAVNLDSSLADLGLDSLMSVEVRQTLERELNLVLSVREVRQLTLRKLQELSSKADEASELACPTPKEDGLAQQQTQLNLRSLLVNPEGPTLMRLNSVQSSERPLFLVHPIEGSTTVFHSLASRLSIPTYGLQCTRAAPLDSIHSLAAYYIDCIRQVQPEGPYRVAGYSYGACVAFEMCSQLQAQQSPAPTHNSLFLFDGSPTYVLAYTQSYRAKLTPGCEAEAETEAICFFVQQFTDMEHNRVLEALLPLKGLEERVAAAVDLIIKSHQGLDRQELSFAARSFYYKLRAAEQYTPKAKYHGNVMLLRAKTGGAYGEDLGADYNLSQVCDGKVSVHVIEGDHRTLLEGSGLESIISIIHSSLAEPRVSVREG

COc1ccc(C(=O)CSc2nc3ccc[nH]c-3n2)cc1OC
IC50 (Coagulation factor XII): > 50 µM (inactive)

O=C(NC1CCCc2ccccc21)C1CCN(S(=O)(=O)c2ccccc2F)CC1 (centres undefined)
IC50 (Coagulation factor XII): > 50 µM (inactive)

CCOc1ccc(C(=O)Nc2cccc(C(=O)O)c2C)cc1Cl
AC50 [1]: 10.1 µM (active) | AC50 [2]: 8.56 µM (active) | AC50 [3]: 8.96 µM (active)

Cc1cc(C(=O)CN2C(=O)c3ccccc3S2(=O)=O)c(C)n1-c1ccccc1
EC50 [4]: 9.5 µM (active) | AC50 [2]: 3.45 µM (active) | EC50 [5]: 7.71 µM (active) | EC50 [6]: 5.88 µM (active)

Cc1cc(NC(=O)COC(=O)C2CCN(S(=O)(=O)c3c(Cl)cccc3Cl)CC2)no1
IC50 (Coagulation factor XII): > 50 µM (inactive)

O=C(Nc1nc2c(s1)CCCC2)c1ccc(Br)s1
IC50 [7]: 25.4 µM (active) | IC50 [8]: 25.7 µM (active) | IC50 (Caspase-3): 24.9 µM (active) | IC50 [9]: 4.82 µM (active) | IC50 [10]: 5.95 µM (active)

CCOc1ccc(-c2[nH]ncc2-c2ccc(OC)c(OC)c2)c(O)c1
IC50 [11]: 75.8 µM (inactive)

CCOc1cc(NC(=O)CCl)c(OCC)cc1NC(=O)CCl
AC50 [2]: 5.51 µM (active)

COc1ccc(NC(=O)Cn2nnc(-c3ccccc3NS(=O)(=O)c3ccc(OC)cc3)n2)cc1
IC50 [11]: > 80 µM (inactive)

O=Nc1ccc(NOC(=O)c2ccccc2)cc1
IC50 [7]: > 100 µM (inactive) | IC50 (Caspase-3): 48.4 µM (active) | IC50 [9]: 8.98 µM (active) | IC50 [10]: 21.7 µM (active)

O=C(O)c1ccc(Nc2nc3c(s2)CCCC3)cc1
AC50 [1]: 4.75 µM (active) | AC50 [2]: 6.49 µM (active) | AC50 [3]: 4.2 µM (active)

Cc1nonc1OC(C)CNCCNc1ccc([N+](=O)[O-])cc1 (centres undefined)
IC50 (Coagulation factor XII): > 50 µM (inactive)

O=C(C1CC(c2ccc(Cl)c(Cl)c2)=NO1)N1CCC2(CC1)OCCO2 (centres undefined)
IC50 (Coagulation factor XII): > 50 µM (inactive) | IC50 (Fatty acid synthase [12]): 7.22 µM (active) | IC50 (Fatty acid synthase [13]): 5.55 µM (active)

CCc1ccc(/C=N/NC(=O)c2cc(C3CC3)nc3ccccc23)s1
IC50 [11]: > 80 µM (inactive)

COc1cccc(/N=C/c2c(O)oc3ccccc3c2=O)c1
IC50 [7]: > 100 µM (inactive) | IC50 (Caspase-3): > 100 µM (inactive) | IC50 [9]: 14.2 µM (active) | IC50 [10]: > 100 µM (inactive)

O=[N+]([O-])c1ccc(N/N=C/c2ccccc2O)cc1
IC50 [7]: 55.1 µM (active) | IC50 (Caspase-3): 31.1 µM (active) | EC50 (cells [14]): > 350 µM (not active) | IC50 [9]: 4.9 µM (active) | EC50 (cells [15]): 10.4 µM (active) | IC50 [10]: 22.1 µM (active)

COc1ccc(/C=C2\CCc3ccccc3C2=O)cc1OC
IC50 [7]: 22.1 µM (active) | IC50 (Caspase-3): 27.3 µM (active) | IC50 [9]: 7.94 µM (active) | IC50 [10]: 15.8 µM (active)

— ChEMBL document CHEMBL1201862, “PubChem BioAssay data set” (2004)
